# Measurements from US20210300936A1, “PYRAZOLOTRIAZOLOPYRIMIDINE DERIVATIVES AS A2A RECEPTOR ANTAGONIST” (BEIGENE, LTD., priority 2018, published 2021).
# Biological target: human A2A receptor (A2AR) (Homo sapiens, UniProt P29274)
# Assay: Luciferase reporter assay (HEK293-A2AR-luc2p/CRE/Hygro cells, 3 nM CGS21680)
# Assay type: cell-based
# Details: 3 nM CGS21680, 5 h incubation
# Outline: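 Antagonist (0.1–10000 nM) and 3 nM CGS21680 were co-added for 5 h to stable HEK293-A2AR-luc2p/CRE cells, 18 h after seeding in 1% FBS medium containing adenosine deaminase. Luminescence was normalized to agonist alone (100%), and IC50 came from the dose–inhibition curve.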
# human A2A receptor (A2AR), sequence (P29274 whole entry): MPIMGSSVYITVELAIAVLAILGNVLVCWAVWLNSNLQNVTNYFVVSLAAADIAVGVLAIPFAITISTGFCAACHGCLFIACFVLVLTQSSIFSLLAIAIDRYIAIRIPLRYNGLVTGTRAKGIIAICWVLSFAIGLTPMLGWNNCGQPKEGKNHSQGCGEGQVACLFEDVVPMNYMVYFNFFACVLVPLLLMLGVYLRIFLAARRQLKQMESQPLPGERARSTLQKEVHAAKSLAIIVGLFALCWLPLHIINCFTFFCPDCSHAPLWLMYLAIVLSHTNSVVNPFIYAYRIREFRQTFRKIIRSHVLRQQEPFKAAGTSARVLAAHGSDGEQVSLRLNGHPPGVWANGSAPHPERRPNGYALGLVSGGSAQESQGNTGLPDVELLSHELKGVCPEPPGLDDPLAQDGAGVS
row,Compound,IC50 [nM]
1,"CN(C)C(=O)c1ccccc1N1CCN(C(=O)C(C)(c2ccccc2)n2ncc3c2nc(N)n2nc(-c4ccco4)nc32)CC1 (centres unmarked) [Compound A96, 2-(4-(2-(5-amino-2-(furan-2-yl)-7H-pyrazolo[4,3-e][1,2,4]triazolo[1,5-c]pyrimidin-7-yl)-2-phenylpropanoyl)piperazin-1-yl)-N,N-dimethylbenzamide]",13.7
2,"COCCOc1ccc(N2CCN(C(=O)C(C)(Cc3ccccc3)n3ncc4c3nc(N)n3nc(-c5ccco5)nc43)CC2)cc1 (centres unmarked) [Compound A97, 2-(5-amino-2-(furan-2-yl)-7H-pyrazolo[4,3-e][1,2,4]triazolo[1,5-c]pyrimidin-7-yl)-1-(4-(4-(2-methoxyethoxy)phenyl)piperazin-1-yl)-2-methyl-3-phenylpropan-1-one]",335
3,"CC(C(=O)N1CCN(c2ccc(C(=O)NC3CCCCC3)cc2)CC1)(c1ccccc1)n1ncc2c1nc(N)n1nc(-c3ccco3)nc21 (centres unmarked) [Compound A98, 4-(4-(2-(5-amino-2-(furan-2-yl)-7H-pyrazolo[4,3-e][1,2,4]triazolo[1,5-c]pyrimidin-7-yl)-2-phenylpropanoyl)piperazin-1-yl)-N-cyclohexylbenzamide]",7.2
4,"CC(C(=O)N1CCN(c2ccccc2C(=O)N2CCCCC2)CC1)(c1ccccc1)n1ncc2c1nc(N)n1nc(-c3ccco3)nc21 (centres unmarked) [Compound A99, 2-(5-amino-2-(furan-2-yl)-7H-pyrazolo[4,3-e][1,2,4]triazolo[1,5-c]pyrimidin-7-yl)-2-phenyl-1-(4-(2-(piperidine-1-carbonyl)phenyl)piperazin-1-yl)propan-1-one]",28.6
5,"CC(C(=O)N1CCN(c2ccccc2C(=O)NCC2(O)COC2)CC1)(c1ccccc1)n1ncc2c1nc(N)n1nc(-c3ccco3)nc21 (centres unmarked) [Compound A100, 2-(4-(2-(5-amino-2-(furan-2-yl)-7H-pyrazolo[4,3-e][1,2,4]triazolo[1,5-c]pyrimidin-7-yl)-2-phenylpropanoyl)piperazin-1-yl)-N-((3-hydroxyoxetan-3-yl)methyl)benzamide]",25
6,"CC(C(=O)N1CCN(c2ccc(OCCN3CCCC3)cc2)CC1)(c1ccccc1)n1ncc2c1nc(N)n1nc(-c3ccco3)nc21 (centres unmarked) [Compound A101, 2-(5-amino-2-(furan-2-yl)-7H-pyrazolo[4,3-e][1,2,4]triazolo[1,5-c]pyrimidin-7-yl)-2-phenyl-1-(4-(4-(2-(pyrrolidin-1-yl)ethoxy)phenyl)piperazin-1-yl)propan-1-one]",3.9
7,"CC(C(=O)N1CCN(c2ccc(C(=O)N3CCCCC3)cc2)CC1)(c1ccccc1)n1ncc2c1nc(N)n1nc(-c3ccco3)nc21 (centres unmarked) [Compound A102, 2-(5-amino-2-(furan-2-yl)-7H-pyrazolo[4,3-e][1,2,4]triazolo[1,5-c]pyrimidin-7-yl)-2-phenyl-1-(4-(4-(piperidine-1-carbonyl)phenyl)piperazin-1-yl)propan-1-one]",9.2
8,"COCCOc1ccc(N2CCN(C(=O)C(C)(c3ccccc3C)n3ncc4c3nc(N)n3nc(-c5ccco5)nc43)CC2)cc1 (centres unmarked) [Compound A103, 2-(5-amino-2-(furan-2-yl)-7H-pyrazolo[4,3-e][1,2,4]triazolo[1,5-c]pyrimidin-7-yl)-1-(4-(4-(2-methoxyethoxy)phenyl)piperazin-1-yl)-2-(o-tolyl)propan-1-one]",1.7
9,"CN(C)C(=O)c1ccc(N2CCN(C(=O)C(C)(c3ccccc3)n3ncc4c3nc(N)n3nc(-c5ccco5)nc43)CC2)cc1 (centres unmarked) [Compound A104, 4-(4-(2-(5-amino-2-(furan-2-yl)-7H-pyrazolo[4,3-e][1,2,4]triazolo[1,5-c]pyrimidin-7-yl)-2-phenylpropanoyl)piperazin-1-yl)-N,N-dimethylbenzamide]",5.5
10,"COc1ccc(N2CCN(C(=O)C(C)(c3ccccc3)n3ncc4c3nc(N)n3nc(-c5ccco5)nc43)CC2)c(OC)c1 (centres unmarked) [Compound A105, 2-(5-amino-2-(furan-2-yl)-7H-pyrazolo[4,3-e][1,2,4]triazolo[1,5-c]pyrimidin-7-yl)-1-(4-(2,4-dimethoxyphenyl)piperazin-1-yl)-2-phenylpropan-1-one]",10.3
11,"COCCOc1ccc(N2CCN(C(=O)C(C)(c3ccccc3)n3ncc4c3nc(N)n3nc(-c5ccco5)nc43)CC2)c(OC)c1 (centres unmarked) [Compound A106, 2-(5-amino-2-(furan-2-yl)-7H-pyrazolo[4,3-e][1,2,4]triazolo[1,5-c]pyrimidin-7-yl)-1-(4-(2-methoxy-4-(2-methoxyethoxy)phenyl)piperazin-1-yl)-2-phenylpropan-1-one]",8.5
12,"CNCCOc1ccc(N2CCN(C(=O)C(C)(c3ccccc3)n3ncc4c3nc(N)n3nc(-c5ccco5)nc43)CC2)cc1 (centres unmarked) [Compound A107, 2-(5-amino-2-(furan-2-yl)-7H-pyrazolo[4,3-e][1,2,4]triazolo[1,5-c]pyrimidin-7-yl)-1-(4-(4-(2-(methylamino)ethoxy)phenyl)piperazin-1-yl)-2-phenylpropan-1-one]",4.8
13,"CC(C(=O)N1CCN(c2ccc(OCCO)cc2)CC1)(c1ccccc1)n1ncc2c1nc(N)n1nc(-c3ccco3)nc21 (centres unmarked) [Compound A108, 2-(5-amino-2-(furan-2-yl)-7H-pyrazolo[4,3-e][1,2,4]triazolo[1,5-c]pyrimidin-7-yl)-1-(4-(4-(2-hydroxyethoxy)phenyl)piperazin-1-yl)-2-phenylpropan-1-one]",3.5
14,"CN(C)C(=O)C(c1ccccc1)n1ncc2c1nc(N)n1nc(-c3ccco3)nc21 (centres unmarked) [Compound B1, 2-(5-amino-2-(furan-2-yl)-7H-pyrazolo[4,3-e][1,2,4]triazolo[1,5-c]pyrimidin-7-yl)-N,N-dimethyl-2-phenylacetamide]",15.2
15,"Nc1nc2c(cnn2C(C(=O)N2CCCCC2)c2ccccc2)c2nc(-c3ccco3)nn12 (centres unmarked) [Compound B2, 2-(5-amino-2-(furan-2-yl)-7H-pyrazolo[4,3-e][1,2,4]triazolo[1,5-c]pyrimidin-7-yl)-2-phenyl-1-(piperidin-1-yl)ethan-1-one]",2.9
16,"Nc1nc2c(cnn2C(C(=O)N2CCc3ccccc3C2)c2ccccc2)c2nc(-c3ccco3)nn12 (centres unmarked) [Compound B3, 2-(5-amino-2-(furan-2-yl)-7H-pyrazolo[4,3-e][1,2,4]triazolo[1,5-c]pyrimidin-7-yl)-1-(3,4-dihydroisoquinolin-2(1H)-yl)-2-phenylethan-1-one]",1.9
17,"Nc1nc2c(cnn2C(C(=O)N2CCCc3ccccc32)c2ccccc2)c2nc(-c3ccco3)nn12 (centres unmarked) [Compound B4, 2-(5-amino-2-(furan-2-yl)-7H-pyrazolo[4,3-e][1,2,4]triazolo[1,5-c]pyrimidin-7-yl)-1-(3,4-dihydroquinolin-1(2H)-yl)-2-phenylethan-1-one]",2.9
18,"Nc1nc2c(cnn2C(C(=O)N2CCc3ccc(Cl)cc3C2)c2ccccc2)c2nc(-c3ccco3)nn12 (centres unmarked) [Compound B5, 2-(5-amino-2-(furan-2-yl)-7H-pyrazolo[4,3-e][1,2,4]triazolo[1,5-c]pyrimidin-7-yl)-1-(7-chloro-3,4-dihydroisoquinolin-2(1H)-yl)-2-phenylethan-1-one]",3
19,"Nc1nc2c(cnn2C(C(=O)N2CCc3ccc(OC(F)(F)F)cc3C2)c2ccccc2)c2nc(-c3ccco3)nn12 (centres unmarked) [Compound B6, 2-(5-amino-2-(furan-2-yl)-7H-pyrazolo[4,3-e][1,2,4]triazolo[1,5-c]pyrimidin-7-yl)-2-phenyl-1-(7-(trifluoromethoxy)-3,4-dihydroisoquinolin-2(1H)-yl)ethan-1-one]",7
20,"Nc1nc2c(cnn2C(C(=O)N2CCc3cc(F)ccc3C2)c2ccccc2)c2nc(-c3ccco3)nn12 (centres unmarked) [Compound B7, 2-(5-amino-2-(furan-2-yl)-7H-pyrazolo[4,3-e][1,2,4]triazolo[1,5-c]pyrimidin-7-yl)-1-(6-fluoro-3,4-dihydroisoquinolin-2(1H)-yl)-2-phenylethan-1-one]",2
21,"Nc1nc2c(cnn2C(C(=O)N2CCc3ccncc3C2)c2ccccc2)c2nc(-c3ccco3)nn12 (centres unmarked) [Compound B8, 2-(5-amino-2-(furan-2-yl)-7H-pyrazolo[4,3-e][1,2,4]triazolo[1,5-c]pyrimidin-7-yl)-1-(3,4-dihydro-2,7-naphthyridin-2(1H)-yl)-2-phenylethan-1-one]",4
22,"Nc1nc2c(cnn2C(C(=O)N2CCc3cccnc3C2)c2ccccc2)c2nc(-c3ccco3)nn12 (centres unmarked) [Compound B9, 2-(5-amino-2-(furan-2-yl)-7H-pyrazolo[4,3-e][1,2,4]triazolo[1,5-c]pyrimidin-7-yl)-1-(5,8-dihydro-1,7-naphthyridin-7(6H)-yl)-2-phenylethan-1-one]",3.4
23,"Nc1nc2c(cnn2C(C(=O)N2CCc3cccc(F)c3C2)c2ccccc2)c2nc(-c3ccco3)nn12 (centres unmarked) [Compound B10, 2-(5-amino-2-(furan-2-yl)-7H-pyrazolo[4,3-e][1,2,4]triazolo[1,5-c]pyrimidin-7-yl)-1-(8-fluoro-3,4-dihydroisoquinolin-2(1H)-yl)-2-phenylethan-1-one]",0.8
24,"Nc1nc2c(cnn2C(C(=O)N2CCc3ccc(F)cc3C2)c2ccccc2)c2nc(-c3ccco3)nn12 (centres unmarked) [Compound B11, 2-(5-amino-2-(furan-2-yl)-7H-pyrazolo[4,3-e][1,2,4]triazolo[1,5-c]pyrimidin-7-yl)-1-(7-fluoro-3,4-dihydroisoquinolin-2(1H)-yl)-2-phenylethan-1-one]",2.2
25,"Nc1nc2c(cnn2C(C(=O)N2CCc3c(F)cccc3C2)c2ccccc2)c2nc(-c3ccco3)nn12 (centres unmarked) [Compound B12, 2-(5-amino-2-(furan-2-yl)-7H-pyrazolo[4,3-e][1,2,4]triazolo[1,5-c]pyrimidin-7-yl)-1-(5-fluoro-3,4-dihydroisoquinolin-2(1H)-yl)-2-phenylethan-1-one]",2.5
26,"Nc1nc2c(cnn2C(C(=O)N2CCc3ncccc3C2)c2ccccc2)c2nc(-c3ccco3)nn12 (centres unmarked) [Compound B13, 2-(5-amino-2-(furan-2-yl)-7H-pyrazolo[4,3-e][1,2,4]triazolo[1,5-c]pyrimidin-7-yl)-1-(7,8-dihydro-1,6-naphthyridin-6(5H)-yl)-2-phenylethan-1-one]",2.8
